Measured values published in PubChem BioAssay AID2060325 (Molecular Pharmacology Branch, DTP, NCI, 2025).

System: SK-OV-3 multi-cell spheroids, viability
Experiment: Anticancer human tumor SK-OV-3 cell line growth inhibition [IpAb];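 on viability, T/C: viability read after seven days of drug exposure; percent of DMSO vehicle control luminescence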
Details: for IC50: curve of first compound; for viability, T/C: stronger effect = lower value
How it was run: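 Multi-cell spheroids of 60% tumour cells, 25% HUVEC and 15% MSC in ultra-low-attachment U-bottom wells, treated with agents combined with ipatasertib or abemaciclib. Half-log ranges top out near clinical Cmax, or 10 microM when Cmax is unknown.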

[1] = second compound 0.1 µM, first compound 0.0316 µM
[2] = second compound 0.1 µM, first compound 0.1 µM
[3] = second compound 0.1 µM, first compound 0.316 µM
[4] = second compound 0.1 µM, first compound 1 µM
[5] = second compound 0.1 µM, first compound 3.16 µM
[6] = second compound 0.1 µM, first compound 10 µM
[7] = second compound 0.316 µM, first compound 0.0316 µM
[8] = second compound 0.316 µM, first compound 0.1 µM
[9] = second compound 0.316 µM, first compound 0.316 µM
[10] = second compound 0.316 µM, first compound 1 µM
[11] = second compound 0.316 µM, first compound 3.16 µM
[12] = second compound 0.316 µM, first compound 10 µM
[13] = second compound 1 µM, first compound 0.0316 µM
[14] = second compound 1 µM, first compound 0.1 µM
[15] = second compound 1 µM, first compound 0.316 µM
[16] = second compound 1 µM, first compound 1 µM
[17] = second compound 1 µM, first compound 3.16 µM
[18] = second compound 1 µM, first compound 10 µM
[19] = second compound 3.16 µM, first compound 0.0316 µM
[20] = second compound 3.16 µM, first compound 0.1 µM
[21] = second compound 3.16 µM, first compound 0.316 µM
[22] = second compound 3.16 µM, first compound 1 µM
[23] = second compound 3.16 µM, first compound 3.16 µM
[24] = second compound 3.16 µM, first compound 10 µM
[25] = second compound 10 µM, first compound 0.0316 µM
[26] = second compound 10 µM, first compound 0.1 µM
[27] = second compound 10 µM, first compound 0.316 µM
[28] = second compound 10 µM, first compound 1 µM
[29] = second compound 10 µM, first compound 3.16 µM
[30] = second compound 10 µM, first compound 10 µM

Cc1nc(NC(=O)N2CCCC2C(N)=O)sc1-c1ccnc(C(C)(C)C(F)(F)F)c1 (stereo not given) + CC(C)NCC(C(=O)N1CCN(c2ncnc3c2C(C)CC3O)CC1)c1ccc(Cl)cc1
IC50 (second compound 0.1 µM): 120 nM | IC50 (second compound 0.316 µM): < 31.6 nM | IC50 (second compound 1 µM): < 31.6 nM | IC50 (second compound 3.16 µM): < 31.6 nM | IC50 (second compound 10 µM): < 31.6 nM | viability, T/C [1]: 67.1% | viability, T/C [2]: 52.7% | viability, T/C [3]: 35% | viability, T/C [4]: 19.4% | viability, T/C [5]: 9% | viability, T/C [6]: 5% | viability, T/C [7]: 33.5% | viability, T/C [8]: 30.2% | viability, T/C [9]: 22.5% | viability, T/C [10]: 11.6% | viability, T/C [11]: 8.53% | viability, T/C [12]: 4.14% | viability, T/C [13]: 16.4% | viability, T/C [14]: 15.6% | viability, T/C [15]: 13.8% | viability, T/C [16]: 9.61% | viability, T/C [17]: 7.02% | viability, T/C [18]: 4.07% | viability, T/C [19]: 14.5% | viability, T/C [20]: 11.2% | viability, T/C [21]: 7.81% | viability, T/C [22]: 6.61% | viability, T/C [23]: 6.22% | viability, T/C [24]: 4.46% | viability, T/C [25]: 7.89% | viability, T/C [26]: 8.14% | viability, T/C [27]: 5.69% | viability, T/C [28]: 5.04% | viability, T/C [29]: 3.63% | viability, T/C [30]: 2.25%

Cn1nccc1Nc1nccc(-c2ccn(C(CO)c3ccc(Cl)c(F)c3)c(=O)c2)n1 (stereo not given) + CC(C)NCC(C(=O)N1CCN(c2ncnc3c2C(C)CC3O)CC1)c1ccc(Cl)cc1
IC50 (second compound 0.1 µM): 5040 nM | IC50 (second compound 0.316 µM): < 31.6 nM | IC50 (second compound 1 µM): < 31.6 nM | IC50 (second compound 3.16 µM): < 31.6 nM | IC50 (second compound 10 µM): < 31.6 nM | viability, T/C [1]: 71.3% | viability, T/C [2]: 68% | viability, T/C [3]: 67.6% | viability, T/C [4]: 68.3% | viability, T/C [5]: 62.3% | viability, T/C [6]: 31.9% | viability, T/C [7]: 36.5% | viability, T/C [8]: 36% | viability, T/C [9]: 37.7% | viability, T/C [10]: 36.9% | viability, T/C [11]: 29.7% | viability, T/C [12]: 16.6% | viability, T/C [13]: 18.4% | viability, T/C [14]: 18.7% | viability, T/C [15]: 17.6% | viability, T/C [16]: 16.8% | viability, T/C [17]: 15.2% | viability, T/C [18]: 7.24% | viability, T/C [19]: 15.6% | viability, T/C [20]: 12.6% | viability, T/C [21]: 10.6% | viability, T/C [22]: 9.52% | viability, T/C [23]: 8.01% | viability, T/C [24]: 4.41% | viability, T/C [25]: 9.59% | viability, T/C [26]: 8.62% | viability, T/C [27]: 7.34% | viability, T/C [28]: 7.5% | viability, T/C [29]: 6.98% | viability, T/C [30]: 2.15%
